This assay has as its target T1, His-MBP-TEV-Full length human TNNI3K (hTNNI3K) (Homo sapiens, UniProt Q59H18).
T1 construct: His-MBP-TEV-Full length human TNNI3K (hTNNI3K); His (N); TEV cleavage site (N); made in house; host or cells: baculovirus system (printed 'Baculokinase system')
T1 sequence (Q59H18 1-835): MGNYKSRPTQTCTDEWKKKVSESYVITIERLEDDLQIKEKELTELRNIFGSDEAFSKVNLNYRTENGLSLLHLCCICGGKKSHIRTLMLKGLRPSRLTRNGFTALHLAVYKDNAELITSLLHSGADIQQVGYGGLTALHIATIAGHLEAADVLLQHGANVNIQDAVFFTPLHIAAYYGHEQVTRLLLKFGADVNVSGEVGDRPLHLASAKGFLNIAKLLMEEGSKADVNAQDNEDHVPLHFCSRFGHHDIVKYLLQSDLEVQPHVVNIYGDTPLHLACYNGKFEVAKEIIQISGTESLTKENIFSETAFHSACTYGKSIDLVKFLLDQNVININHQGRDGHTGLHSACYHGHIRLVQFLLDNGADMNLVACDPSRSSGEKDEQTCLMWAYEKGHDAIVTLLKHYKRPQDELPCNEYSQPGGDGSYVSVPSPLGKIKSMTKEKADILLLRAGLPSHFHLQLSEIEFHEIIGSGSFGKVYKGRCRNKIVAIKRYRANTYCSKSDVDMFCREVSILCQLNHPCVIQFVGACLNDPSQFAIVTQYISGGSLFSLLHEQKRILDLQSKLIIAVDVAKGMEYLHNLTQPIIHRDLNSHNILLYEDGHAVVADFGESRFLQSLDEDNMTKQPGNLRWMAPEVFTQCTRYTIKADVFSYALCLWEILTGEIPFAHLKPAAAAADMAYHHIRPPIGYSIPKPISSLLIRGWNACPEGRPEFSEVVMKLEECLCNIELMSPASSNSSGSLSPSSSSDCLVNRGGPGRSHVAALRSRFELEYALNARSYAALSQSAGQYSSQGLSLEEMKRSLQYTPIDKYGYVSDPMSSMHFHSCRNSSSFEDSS
The assay is described as follows: Fluorescent polarization assay of compound inhibition on hTNNI3K ATP binding (Biological Assay Method I). The note with it: displacement of fluorescent ligand, mean of a minimum of 2 experiments, read-out: mean pXC50 (converted). From the text:
Materials: His-MBP-TEV-Full length human TNNI3K (hTNNI3K) was expressed in Baculokinase system and purified from amylase affinity column followed by Superdex200. The fluorescent ligand 5-({[2-({[3-({4-[(5-hydroxy-2-methylphenyl)amino]-2-pyrimidinyl}amino)phenyl]carbonyl}amino)ethyl]amino}carbonyl)-2-(6-hydroxy-3-oxo-3H-xanthen-9-yl)benzoic acid was used. The other buffer components, including MgCl2 (Catalog Number M1028), Bis-Tris (Catalog Number B7535), DTT (Catalog Number D9779) and Chaps (Catalog Number C3023) were purchased from Sigma-Aldrich.
A fluorescent polarization assay was used to determine does response of compound inhibition on hTNNI3K ATP binding. […]
Fifty (50) nL of inhibitors in DMSO (or DMSO controls) were stamped into a 384-well low volume Greiner black plate, followed by addition of 5 μL of Solution 1 to column 18 and 5 μL Solution 2 to columns 1-17 and 19-24 of the plate. […] After that, the fluorescent polarization was measured on Analyst (ex/em: 485/530 nm, Dichroic: 505). […]

The structures appear in SMILES notation. Counter-ions that a name gives are not always drawn.

Consider `CNc1cc(Oc2c(C)cc(NC(=O)Nc3cccc(C(F)(F)F)c3)cc2C)ncn1` [Example 5, N-(3,5-dimethyl-4-{[6-(methylamino)-4-pyrimidinyl]oxy}phenyl)-N′-[3-(trifluoromethyl)phenyl]urea trifluoroacetate], for which the IC50 is 0.0251 µM.
With `CNc1cc(Oc2ccc(NC(=O)Nc3cccc(C(F)(F)F)c3)cc2F)ncn1` [Example 11, N-(3-fluoro-4-{[6-(methylamino)-4-pyrimidinyl]oxy}phenyl)-N′-[3-(trifluoromethyl)phenyl]urea trifluoroacetate], the IC50 was 0.0251 µM.
